Source: ChEMBL document CHEMBL1201862, “PubChem BioAssay data set” (2004)
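Five concentrations, 48 hours, 96-well plates. At the GI50, growth is halved.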 Calls of active or inactive are those of the source. Cut-off read from the data, not from the text of the source: active = GI50 up to about 1.1 µM and inactive = higher.

Legend:
Assay in all cases: inhibition of tumour cell growth, NCI panel, 48 h
IGROV-1 = tested on: IGROV-1
HOP-62 = tested on: HOP-62
PC-3 = tested on: PC-3
HL-60 = tested on: HL-60
KM12 = tested on: KM12
OVCAR-8 = tested on: OVCAR-8
NCI-H460 = tested on: NCI-H460
OVCAR-3 = tested on: OVCAR-3
NCI/ADR-RES = tested on: NCI/ADR-RES
MDA-N = tested on: MDA-N
A549 = tested on: A549
SK-OV-3 = tested on: SK-OV-3
NCI-H226 = tested on: NCI-H226
SF-268 = tested on: SF-268
NCI-H23 = tested on: NCI-H23
CCRF-CEM = tested on: CCRF-CEM
MOLT-4 = tested on: MOLT-4
UO-31 = tested on: UO-31
BT-549 = tested on: BT-549
Hs-578T = tested on: Hs-578T
HCT-116 = tested on: HCT-116
786-0 = tested on: 786-0
SNB-19 = tested on: SNB-19
SK-MEL-5 = tested on: SK-MEL-5
HT-29 = tested on: HT-29
COLO 205 = tested on: COLO 205
SF-295 = tested on: SF-295
M14 = tested on: M14
OVCAR-4 = tested on: OVCAR-4
Malme-3M = tested on: Malme-3M
SK-MEL-28 = tested on: SK-MEL-28
MDA-MB-435 = tested on: MDA-MB-435
EKVX = tested on: EKVX
UACC-62 = tested on: UACC-62
SNB-75 = tested on: SNB-75
NCI-H522 = tested on: NCI-H522
OVCAR-5 = tested on: OVCAR-5
K562 = tested on: K562
LOX IMVI = tested on: LOX IMVI
ACHN = tested on: ACHN
U-251 = tested on: U-251
SR = tested on: SR
CAKI-1 = tested on: CAKI-1
TK-10 = tested on: TK-10
MDA-MB-231 = tested on: MDA-MB-231
T47D = tested on: T47D
UACC-257 = tested on: UACC-257
HCT-15 = tested on: HCT-15
RXF 393 = tested on: RXF 393
DU-145 = tested on: DU-145
MCF7 = tested on: MCF7
SN12C = tested on: SN12C
A498 = tested on: A498
SW-620 = tested on: SW-620
HCC 2998 = tested on: HCC 2998
RPMI-8226 = tested on: RPMI-8226
SF-539 = tested on: SF-539
SK-MEL-2 = tested on: SK-MEL-2
HOP-92 = tested on: HOP-92

For S=C1CCSc2c(ccc3ccccc23)N1, the GI50 (IGROV-1) was > 100 µM (inactive), the GI50 (HOP-62) was 41.4 µM (inactive) and the GI50 (PC-3) was 41 µM (inactive). For the same molecule, the GI50 (HL-60) was 33.2 µM (inactive), the GI50 (KM12) was > 100 µM (inactive) and the GI50 (OVCAR-8) was > 100 µM (inactive). The GI50 (NCI-H460) was 71.8 µM (inactive), the GI50 (OVCAR-3) was > 100 µM (inactive) and the GI50 (NCI/ADR-RES) was > 100 µM (inactive). For the same molecule, the GI50 (MDA-N) was > 100 µM (inactive), the GI50 (A549) was > 100 µM (inactive) and the GI50 (SK-OV-3) was 83.9 µM (inactive). The GI50 (NCI-H226) was > 100 µM (inactive), the GI50 (SF-268) was 58.6 µM (inactive) and the GI50 (NCI-H23) was > 100 µM (inactive). For the same molecule, the GI50 (CCRF-CEM) was > 100 µM (inactive), the GI50 (MOLT-4) was 30 µM (inactive) and the GI50 (UO-31) was > 100 µM (inactive). For the same molecule, the GI50 (BT-549) was 67.1 µM (inactive), the GI50 (Hs-578T) was 19.1 µM (inactive) and the GI50 (HCT-116) was > 100 µM (inactive). For the same molecule, the GI50 (786-0) was > 100 µM (inactive), the GI50 (SNB-19) was 95.5 µM (inactive) and the GI50 (SK-MEL-5) was > 100 µM (inactive). The GI50 (HT-29) was > 100 µM (inactive), the GI50 (COLO 205) was > 100 µM (inactive) and the GI50 (SF-295) was 45.8 µM (inactive). The GI50 (M14) was > 100 µM (inactive), the GI50 (OVCAR-4) was 46.7 µM (inactive) and the GI50 (Malme-3M) was > 100 µM (inactive). For the same molecule, the GI50 (SK-MEL-28) was > 100 µM (inactive), the GI50 (MDA-MB-435) was > 100 µM (inactive) and the GI50 (EKVX) was 77.6 µM (inactive). The GI50 (UACC-62) was 93.8 µM (inactive), the GI50 (SNB-75) was 74.3 µM (inactive) and the GI50 (NCI-H522) was 58.5 µM (inactive). For the same molecule, the GI50 (OVCAR-5) was > 100 µM (inactive), the GI50 (K562) was 56 µM (inactive) and the GI50 (LOX IMVI) was > 100 µM (inactive). The GI50 (ACHN) was > 100 µM (inactive), the GI50 (U-251) was > 100 µM (inactive) and the GI50 (SR) was 35.6 µM (inactive). For the same molecule, the GI50 (CAKI-1) was > 100 µM (inactive), the GI50 (TK-10) was > 100 µM (inactive) and the GI50 (MDA-MB-231) was > 100 µM (inactive). The GI50 (T47D) was 70.5 µM (inactive), the GI50 (UACC-257) was > 100 µM (inactive) and the GI50 (HCT-15) was > 100 µM. For the same molecule, the GI50 (RXF 393) was 0.512 µM (active), the GI50 (DU-145) was > 100 µM (inactive) and the GI50 (MCF7) was 72.4 µM (inactive). The GI50 (SN12C) was > 100 µM (inactive).
For CN1C/C(=C\c2cccs2)C2=NN(c3ccccc3)C(c3cccs3)C2C1 (configuration not stated), the GI50 (A498) was > 27.3 µM (inactive), the GI50 (IGROV-1) was 4.06 µM (inactive) and the GI50 (HOP-62) was 11.1 µM (inactive). The GI50 (PC-3) was 10.7 µM (inactive), the GI50 (HL-60) was 1.59 µM (inactive) and the GI50 (KM12) was 4.35 µM (inactive). For the same molecule, the GI50 (OVCAR-8) was 10.5 µM (inactive), the GI50 (NCI-H460) was 3.52 µM (inactive) and the GI50 (SW-620) was 4.6 µM (inactive). The GI50 (OVCAR-3) was 2.79 µM (inactive), the GI50 (NCI/ADR-RES) was 3.77 µM (inactive) and the GI50 (MDA-N) was 1.59 µM (inactive). The GI50 (A549) was 7.33 µM (inactive), the GI50 (SK-OV-3) was > 73.3 µM (inactive) and the GI50 (NCI-H226) was > 100 µM (inactive). For the same molecule, the GI50 (HCC 2998) was 6.21 µM (inactive), the GI50 (NCI-H23) was > 100 µM (inactive) and the GI50 (CCRF-CEM) was 2 µM (inactive). For the same molecule, the GI50 (MOLT-4) was 3.4 µM (inactive), the GI50 (RPMI-8226) was 3.59 µM (inactive) and the GI50 (UO-31) was 50 µM (inactive). For the same molecule, the GI50 (BT-549) was 17.9 µM (inactive), the GI50 (Hs-578T) was > 100 µM (inactive) and the GI50 (HCT-116) was 2.7 µM (inactive). The GI50 (786-0) was 3.49 µM (inactive), the GI50 (SNB-19) was 5.93 µM (inactive) and the GI50 (SK-MEL-5) was 11.9 µM (inactive). For the same molecule, the GI50 (HT-29) was 3.14 µM (inactive), the GI50 (COLO 205) was 5.16 µM (inactive) and the GI50 (SF-295) was 4.95 µM (inactive). For the same molecule, the GI50 (M14) was 3.91 µM (inactive), the GI50 (OVCAR-4) was 4.47 µM (inactive) and the GI50 (SK-MEL-28) was > 100 µM (inactive). For the same molecule, the GI50 (MDA-MB-435) was 1.61 µM (inactive), the GI50 (EKVX) was 14.7 µM (inactive) and the GI50 (UACC-62) was > 100 µM (inactive). The GI50 (NCI-H522) was 3.43 µM (inactive), the GI50 (OVCAR-5) was > 100 µM (inactive) and the GI50 (SF-539) was 17.4 µM (inactive). The GI50 (K562) was 3.96 µM (inactive), the GI50 (LOX IMVI) was 5.08 µM (inactive) and the GI50 (ACHN) was > 34 µM (inactive). The GI50 (SK-MEL-2) was 25.5 µM (inactive), the GI50 (U-251) was 12 µM (inactive) and the GI50 (SR) was 1.71 µM (inactive). For the same molecule, the GI50 (CAKI-1) was > 72.9 µM (inactive), the GI50 (TK-10) was 31.6 µM (inactive) and the GI50 (MDA-MB-231) was 21.9 µM (inactive). For the same molecule, the GI50 (T47D) was 76 µM (inactive), the GI50 (UACC-257) was 5.92 µM (inactive) and the GI50 (HCT-15) was 3.78 µM. For the same molecule, the GI50 (DU-145) was 5.33 µM (inactive), the GI50 (MCF7) was 13.3 µM (inactive) and the GI50 (SN12C) was 4.39 µM (inactive).
For O=C1CCN2C(=N1)Sc1ccccc12, the GI50 (IGROV-1) was > 100 µM (inactive), the GI50 (HOP-62) was > 100 µM (inactive) and the GI50 (PC-3) was > 100 µM (inactive). The GI50 (HL-60) was > 100 µM (inactive), the GI50 (KM12) was > 100 µM (inactive) and the GI50 (OVCAR-8) was > 100 µM (inactive). The GI50 (NCI-H460) was > 100 µM (inactive), the GI50 (SW-620) was > 100 µM (inactive) and the GI50 (OVCAR-3) was > 100 µM (inactive). The GI50 (NCI/ADR-RES) was > 100 µM (inactive), the GI50 (MDA-N) was > 100 µM (inactive) and the GI50 (A549) was > 100 µM (inactive). The GI50 (HOP-92) was > 100 µM (inactive), the GI50 (SK-OV-3) was > 100 µM (inactive) and the GI50 (NCI-H226) was > 100 µM (inactive). The GI50 (SF-268) was > 100 µM (inactive), the GI50 (NCI-H23) was > 100 µM (inactive) and the GI50 (CCRF-CEM) was > 100 µM (inactive). For the same molecule, the GI50 (MOLT-4) was > 100 µM (inactive), the GI50 (RPMI-8226) was > 100 µM (inactive) and the GI50 (BT-549) was > 100 µM (inactive). For the same molecule, the GI50 (Hs-578T) was > 100 µM (inactive), the GI50 (HCT-116) was > 100 µM (inactive) and the GI50 (786-0) was > 100 µM (inactive). For the same molecule, the GI50 (SNB-19) was > 100 µM (inactive), the GI50 (SK-MEL-5) was > 100 µM (inactive) and the GI50 (HT-29) was > 100 µM (inactive). The GI50 (COLO 205) was > 100 µM (inactive), the GI50 (SF-295) was > 100 µM (inactive) and the GI50 (M14) was > 100 µM (inactive). The GI50 (OVCAR-4) was > 100 µM (inactive), the GI50 (Malme-3M) was > 100 µM (inactive) and the GI50 (SK-MEL-28) was > 100 µM (inactive). For the same molecule, the GI50 (MDA-MB-435) was > 100 µM (inactive), the GI50 (EKVX) was > 100 µM (inactive) and the GI50 (UACC-62) was > 100 µM (inactive). The GI50 (SNB-75) was > 100 µM (inactive), the GI50 (NCI-H522) was > 100 µM (inactive) and the GI50 (OVCAR-5) was > 100 µM (inactive). The GI50 (SF-539) was > 100 µM (inactive), the GI50 (K562) was > 100 µM (inactive) and the GI50 (LOX IMVI) was > 100 µM (inactive). The GI50 (ACHN) was > 100 µM (inactive), the GI50 (SK-MEL-2) was > 100 µM (inactive) and the GI50 (U-251) was > 100 µM (inactive). The GI50 (SR) was > 100 µM (inactive), the GI50 (CAKI-1) was > 100 µM (inactive) and the GI50 (TK-10) was > 100 µM (inactive). For the same molecule, the GI50 (MDA-MB-231) was > 100 µM (inactive), the GI50 (T47D) was > 100 µM (inactive) and the GI50 (UACC-257) was > 100 µM (inactive). For the same molecule, the GI50 (HCT-15) was > 100 µM, the GI50 (RXF 393) was > 100 µM (inactive) and the GI50 (DU-145) was > 100 µM (inactive). The GI50 (MCF7) was > 100 µM (inactive) and the GI50 (SN12C) was > 100 µM (inactive).
